Reference: ChEMBL document CHEMBL3044877, “Synthesis and crystal structure of chalcones as well as on cytotoxicity and antibacterial properties” (Med Chem Res, 2012)
Converted amounts (≈) assume the structure as drawn.

What was measured:
[1] = test system: HT-29; experiment: Cytotoxicity against Homo sapiens (human) HT-29 cells after 72 hr by MTT assay; type: functional, cell-based
[2] = test system: SGC-7901; experiment: Cytotoxicity against Homo sapiens (human) SGC7901 cells after 72 hr by MTT assay; type: functional, cell-based
[3] = test system: Enterococcus faecium; experiment: Antibacterial activity against multidrug-resistant Enterococcus faecium 609205; type: functional
[4] = test system: Staphylococcus aureus; experiment: Antibacterial activity against multidrug-resistant Staphylococcus aureus 701219; type: functional
[5] = test system: Staphylococcus epidermidis; experiment: Antibacterial activity against multidrug-resistant Staphylococcus epidermidis 619083; type: functional
[6] = test system: Staphylococcus aureus; experiment: Antibacterial activity against multidrug-resistant Staphylococcus aureus 701230; type: functional
[7] = test system: Staphylococcus aureus; experiment: Antibacterial activity against multidrug-resistant Staphylococcus aureus ATCC 25923; type: functional
[8] = test system: Staphylococcus epidermidis; experiment: Antibacterial activity against multidrug-resistant Staphylococcus epidermidis 620206; type: functional
[9] = test system: Enterococcus faecalis; experiment: Antibacterial activity against multidrug-resistant Enterococcus faecalis 609230; type: functional
[10] = test system: Pseudomonas aeruginosa; experiment: Antibacterial activity against multidrug-resistant Pseudomonas aeruginosa 710218; type: functional
[11] = test system: Escherichia coli; experiment: Antibacterial activity against multidrug-resistant Escherichia coli 629247; type: functional
[12] = test system: Pseudomonas aeruginosa; experiment: Antibacterial activity against multidrug-resistant Pseudomonas aeruginosa 630266; type: functional
[13] = test system: Acinetobacter baumannii; experiment: Antibacterial activity against multidrug-resistant Acinetobacter baumannii B-8 303211; type: functional
[14] = test system: Klebsiella pneumoniae; experiment: Antibacterial activity against multidrug-resistant Klebsiella pneumoniae 626511; type: functional
[15] = test system: Klebsiella pneumoniae; experiment: Antibacterial activity against multidrug-resistant Klebsiella pneumoniae 626238; type: functional
[16] = test system: Acinetobacter baumannii; experiment: Antibacterial activity against multidrug-resistant Acinetobacter baumannii B-5 302234; type: functional
[17] = test system: Escherichia coli; experiment: Antibacterial activity against multidrug-resistant Escherichia coli 629119; type: functional
[18] = test system: Staphylococcus aureus; experiment: Antibacterial activity against Staphylococcus aureus after 24 hr; type: functional
[19] = Homo sapiens, HT-29, 72 h, read-out: IC50
[20] = Homo sapiens, SGC-7901, 72 h, read-out: IC50

## COc1ccc(C(=O)/C=C/c2ccccc2C(F)(F)F)cc1
[1]; [19]
  IC50: 36.4 µM

## COc1ccc(C(=O)/C=C/c2ccc(Cl)cc2Cl)cc1
[2]; [20]
  IC50: 12.6 µM
[1]; [19]
  IC50: 18.9 µM

## COc1ccc(C(=O)/C=C/c2ccc(F)cc2F)cc1
[2]; [20]
  IC50: 48.4 µM
[1]; [19]
  IC50: 11.1 µM

## COc1ccc(/C=C/C(=O)c2ccccc2O)c(OC)c1
[2]; sgc-7901
  IC50: Not Active
[1]; ht-29
  IC50: Not Active

## COc1ccc(/C=C/C(=O)c2ccccc2)c(OC)c1
[1]; [19]
  IC50: 131 µM

## O=C(/C=C/c1ccccc1C(F)(F)F)c1ccccc1
[2]; [20]
  IC50: 40.3 µM
[1]; [19]
  IC50: 42.9 µM

## COc1ccc(C(=O)/C=C/c2ccccc2Cl)cc1OC
[2]; [20]
  IC50: 24.7 µM
[1]; [19]
  IC50: 15.5 µM

## COc1ccc(C(=O)/C=C/c2cccc(OC)c2OC)cc1
[2]; [20]
  IC50: 13.1 µM
[1]; [19]
  IC50: 41.7 µM

## COc1ccc(C(=O)/C=C/c2ccccc2Br)cc1OC
[2]; [20]
  IC50: 21.4 µM
[1]; [19]
  IC50: 14 µM

## COc1ccc(/C=C/C(=O)c2cc(F)cc(F)c2)c(OC)c1
[2]; [20]
  IC50: 55.5 µM
[1]; ht-29
  IC50: Not Active

## COc1ccc(C(=O)/C=C/c2ccccc2OC)cc1
[2]; sgc-7901
  IC50: Not Active

## COc1ccccc1/C=C/C(=O)c1cc(F)cc(F)c1
[2]; [20]
  IC50: 75.4 µM
[1]; [19]
  IC50: 53.2 µM

## Nc1ccc(C(=O)/C=C/c2ccccc2C(F)(F)F)cc1
[2]; [20]
  IC50: 15.7 µM

## COc1ccc(C(=O)/C=C/c2ccccc2Br)cc1
[2]; [20]
  IC50: 20 µM
[1]; [19]
  IC50: 25.7 µM

## COc1ccc(C(=O)/C=C/c2ccc(Cl)cc2Cl)cc1OC
[2]; [20]
  IC50: 60.5 µM
[1]; [19]
  IC50: 18.7 µM

## COc1ccc(C(=O)/C=C/c2cccc(OC)c2OC)cc1OC
[2]; [20]
  IC50: 70.7 µM
[1]; [19]
  IC50: 35.9 µM

## Nc1ccc(C(=O)/C=C/c2ccc(Cl)cc2Cl)cc1
[2]; [20]
  IC50: 87.7 µM
[1]; [19]
  IC50: 40 µM

## O=C(/C=C/c1ccc(Cl)cc1Cl)c1ccccc1O
[1]; [19]
  IC50: 42.4 µM

## CN(C)c1ccc(/C=C/C(=O)c2cccc(N)c2)cc1
[1]; ht-29
  IC50: Not Active

## CN(C)c1ccc(/C=C/C(=O)c2cc(F)cc(F)c2)cc1
[2]; sgc-7901
  IC50: Not Active
[1]; ht-29
  IC50: Not Active

## Nc1ccc(C(=O)/C=C/c2ccccc2Cl)cc1
[2]; [20]
  IC50: 11.2 µM
[1]; [19]
  IC50: 26.2 µM

## COc1ccc(/C=C/C(=O)c2ccc(N)cc2)c(Cl)c1
[3]
  MIC: > 1000 µg/mL
[4]
  MIC: > 1000 µg/mL
[5]
  MIC: > 1000 µg/mL
[6]
  MIC: 537 µg/mL (≈ 1870 µM)
[7]
  MIC: 537 µg/mL (≈ 1870 µM)
[2]; [20]
  IC50: 20.2 µM
[8]
  MIC: > 1000 µg/mL
[1]; [19]
  IC50: 55.7 µM
[9]
  MIC: 537 µg/mL (≈ 1870 µM)

## COc1ccc(/C=C/C(=O)c2cccc(N)c2)c(Cl)c1
[2]; [20]
  IC50: 53.8 µM
[1]; [19]
  IC50: 42.8 µM

## COc1ccc(C(=O)/C=C/c2ccc(OC)cc2Cl)cc1
[2]; [20]
  IC50: 19.2 µM
[1]; [19]
  IC50: 49.1 µM

## COc1ccc(/C=C/C(=O)c2ccccc2O)c(Cl)c1
[2]; [20]
  IC50: 62.1 µM
[1]; [19]
  IC50: 59.5 µM

## COc1ccc(/C=C/C(=O)c2cc(F)cc(F)c2)cc1
[2]; sgc-7901
  IC50: Not Active
[1]; [19]
  IC50: 101 µM

## Nc1ccc(C(=O)/C=C/c2ccccc2F)cc1
[2]; [20]
  IC50: 7.44 µM
[1]; [19]
  IC50: 47.8 µM

## COc1ccc(C(=O)/C=C/c2ccc(N(C)C)cc2)cc1OC
[2]; sgc-7901
  IC50: Not Active
[1]; [19]
  IC50: 49.8 µM

## COc1ccc(C(=O)/C=C/c2ccc(O)cc2)cc1
[10]
  MIC: > 1000 µg/mL
[3]
  MIC: > 1000 µg/mL
[11]
  MIC: 548 µg/mL (≈ 2160 µM)
[4]
  MIC: 81 µg/mL (≈ 319 µM)
[12]
  MIC: > 1000 µg/mL
[5]
  MIC: 20 µg/mL (≈ 78.7 µM)
[13]
  MIC: 548 µg/mL (≈ 2160 µM)
[14]
  MIC: > 1000 µg/mL
[6]
  MIC: 81 µg/mL (≈ 319 µM)
[7]
  MIC: 40 µg/mL (≈ 157 µM)
[2]; [20]
  IC50: 14.7 µM
[15]
  MIC: > 1000 µg/mL
[8]
  MIC: 81 µg/mL (≈ 319 µM)
[1]; [19]
  IC50: 18.6 µM
[16]
  MIC: 548 µg/mL (≈ 2160 µM)
[9]
  MIC: 81 µg/mL (≈ 319 µM)
[17]
  MIC: 548 µg/mL (≈ 2160 µM)

## COc1ccc(/C=C/C(=O)c2ccc(OC)c(OC)c2)cc1
[2]; [20]
  IC50: 102 µM
[1]; [19]
  IC50: 54.6 µM

## COc1ccc(/C=C/C(=O)c2ccc(N)cc2)c(OC)c1
[2]; sgc-7901
  IC50: Not Active
[1]; ht-29
  IC50: Not Active

## COc1ccc(/C=C/C(=O)c2ccc(OC)c(OC)c2)c(OC)c1
[2]; sgc-7901
  IC50: Not Active
[1]; [19]
  IC50: 65.5 µM

## COc1ccc(C(=O)/C=C/c2ccccc2F)cc1
[2]; [20]
  IC50: 21.2 µM
[1]; [19]
  IC50: 18.9 µM

## O=C(/C=C/c1ccc(O)cc1)c1ccccc1 [4-HYDROXYCHALCONE]
[10]
  MIC: 158 µg/mL (≈ 705 µM)
[3]
  MIC: 315 µg/mL (≈ 1400 µM)
[11]
  MIC: 158 µg/mL (≈ 705 µM)
[4]
  MIC: 158 µg/mL (≈ 705 µM)
[12]
  MIC: > 1000 µg/mL
[18]
  MIC: 125 µg/mL (≈ 557 µM)
[5]
  MIC: 158 µg/mL (≈ 705 µM)
[13]
  MIC: 158 µg/mL (≈ 705 µM)
[14]
  MIC: > 1000 µg/mL
[6]
  MIC: 158 µg/mL (≈ 705 µM)
[7]
  MIC: 158 µg/mL (≈ 705 µM)
[2]; [20]
  IC50: 13.7 µM
[15]
  MIC: > 1000 µg/mL
[8]
  MIC: 158 µg/mL (≈ 705 µM)
[1]; [19]
  IC50: 24.6 µM
[16]
  MIC: 158 µg/mL (≈ 705 µM)
[9]
  MIC: 158 µg/mL (≈ 705 µM)
[17]
  MIC: 158 µg/mL (≈ 705 µM)

## O=c1[nH]cc(F)c(=O)[nH]1 [FLUOROURACIL]
[2]; Homo sapiens, SGC-7901, 72 h
  IC50: 29.2 µM
[1]; [19]
  IC50: 9.72 µM

## C[C@H]1COc2c(N3CCN(C)CC3)c(F)cc3c(=O)c(C(=O)O)cn1c23.C[C@H]1COc2c(N3CCN(C)CC3)c(F)cc3c(=O)c(C(=O)O)cn1c23.O [LEVOFLOXACIN]
[10]
  MIC: > 1000 µg/mL
[3]
  MIC: > 1000 µg/mL
[11]
  MIC: 25 µg/mL
[4]
  MIC: 100 µg/mL
[12]
  MIC: 325 µg/mL
[5]
  MIC: 125 µg/mL
[13]
  MIC: 12.5 µg/mL
[14]
  MIC: 125 µg/mL
[6]
  MIC: 12.5 µg/mL
[7]
  MIC: 12.5 µg/mL
[15]
  MIC: > 1000 µg/mL
[8]
  MIC: > 1000 µg/mL
[16]
  MIC: > 1000 µg/mL
[9]
  MIC: > 1000 µg/mL
[17]
  MIC: > 1000 µg/mL
